We go through 1 substance from PMC9917443 (eLife, 2023).

Entries after “also recorded” stand apart in the source; their conditions may differ.

The test system of test [1] is CA1 pyramidal cells. The settings on record: anesthetized mice, two-photon Ca^2+ imaging; ref Rice et al., 2019; cited from earlier work. The text has this: GBRs are composed of a GB1a or GB1b subunit with a GB2 subunit, which generates heterodimeric GB1a/2 and GB1b/2 receptors ([Pin and Bettler, 2016]). GB1a differs from GB1b by the presence of two N-terminal sushi domains (SD1/2). GB1a/2 and GB1b/2 receptors predominantly localize to pre- and postsynaptic sites, respectively ([Vigot et al., 2006]). APP and sAPP bind to SD1 of GB1a ([Schwenk et al., 2016]; [Dinamarca et al., 2019]; [Rice et al., 2019]).

Test [2] concerns GBR-activated K^+ currents in cultured hippocampal neurons. Description: K^+ currents in cultured hippocampal neurons (patch-clamp). The format is cell-based, mouse. The method, then: APP17 signaling through native GBRs may depend on protein-protein interactions that are not preserved in the membrane preparations used for the [^35S]GTPγS binding assay. Therefore, we tested whether APP17 influences GBR-mediated Gβγ signaling to K^+ channels in cultured hippocampal neurons using patch-clamp electrophysiology, which preserves the native environment of receptors ([Schuler et al., 2001]; [Vigot et al., 2006]). […] . Neuronal cultures and HEK293T cells were prepared as described ([Dinamarca et al., 2019]). Coverslips with hippocampal neurons (DIV 12–15) or HEK293T cells were transferred to a chamber containing a low-K^+ bath solution (in mM): 145 NaCl, 4 KCl, 5 HEPES, 5.5 D-glucose, 1 MgCl2, and 1.8 CaCl2 (pH 7.4 adjusted with NaOH). Recordings were performed at room temperature using borosilicate pipettes of 3–5 MΩ resistance tips, filled with K-gluconate-based pipette solution (in mM): 150 K-gluconate, 1.1 EGTA, 10 HEPES, 10 Tris-phosphocreatine, 0.3 NaGTP, and 4 MgATP (pH 7.2 adjusted with KOH). Upon achieving whole-cell access, cells were held in voltage-clamp mode at −70 mV (with no correction for liquid junction potential) and baclofen-induced K^+ currents were induced in a high-K^+ bath solution (in mM): 120 NaCl, 25 KCl, 5 HEPES, 5.5 D-glucose, 1 MgCl2, and 1.8 CaCl2 (pH 7.4 adjusted with NaOH). […] Schaffer collaterals were stimulated at 0.1 Hz with brief current pulses via bipolar Pt/Ir wires. Evoked EPSCs were recorded at –60 mV with a Cs^+-based intracellular solution. Baclofen and peptides were bath applied in standard ACSF at room temperature. We recorded mEPSCs in primary neuronal cultures established from embryonic (E15–17) murine hippocampus at DIV13–16 in the presence of 0.5 μM TTX at room temperature ([Dinamarca et al., 2019]). APP17 (250 nM) and (R)-baclofen (30 μM) were applied via superfusion. Template matching with pClamp 10 software (Molecular Devices) was used to detect individual mEPSCs.
For orientation: In patch-clamp work, channel activity is measured electrically.

Test [3] has as its system mEPSCs in brain slices / cultured hippocampal neurons. The settings on record: cultured hippocampal neurons APP17 250 nM, ref Rice et al., 2019; cited from earlier work. The text has this: GBRs are composed of a GB1a or GB1b subunit with a GB2 subunit, which generates heterodimeric GB1a/2 and GB1b/2 receptors ([Pin and Bettler, 2016]). GB1a differs from GB1b by the presence of two N-terminal sushi domains (SD1/2). GB1a/2 and GB1b/2 receptors predominantly localize to pre- and postsynaptic sites, respectively ([Vigot et al., 2006]). APP and sAPP bind to SD1 of GB1a ([Schwenk et al., 2016]; [Dinamarca et al., 2019]; [Rice et al., 2019]). Synthetic APP peptides of 9 or 17 amino acid residues, termed APP9 and APP17, are sufficient for binding and inducing a stable conformation in SD ... || GB1a/2 receptors are abundant at axon terminals where they inhibit neurotransmitter release ([Vigot et al., 2006]). […] A GBR antagonist blocked the effect of APP17 on the mEPSC frequency, supporting a GBR-dependent mechanism.

Test [4] deals with spontaneous neuronal activity in the auditory cortex. Description: two-photon Ca^2+ imaging of auditory cortex in anesthetized mice. The settings on record: 5 µM perfused over cortex; peptides 60 min, baclofen 15 min.
The subject of test [5] is native GBRs in mouse brain membranes. Description: [^35S]GTPγS binding in brain membrane preparations. Background: GTPγS is a poorly hydrolysed GTP analogue; its binding reports G protein activation.

For the substance Ac-DDSDVWWGGADTDYADG-NH2 [APP17], the “neuronal activity (in words)” value in test [1] is on record as “suppresses neuronal activity of CA1 pyramidal cells in anesthetized mice; also recorded: inhibited neuronal activity in the hippocampus of anesthetized mice”. Also, the “K+ current” value in test [2] (5 µM APP17, column graph (left), single values) was -1.055. Also, the “baclofen-induced K^+ currents in presence of peptide (in words)” value in test [2] (5 µM peptide + 5 µM baclofen) is listed as “elicited currents of similar amplitudes as baclofen alone”. For the same substance, the “K^+ currents evoked by compound alone (in words)” value in test [2] (5 µM, -70 mV) is on record as “did not elicit any currents”. In test [3], the “mEPSC frequency (in words)” value is on record as “reduce the frequency of mEPSCs; also recorded: reduced the frequency of miniature excitatory postsynaptic currents (mEPSCs) in brain slices”. For the same substance, in test [4], the “spontaneous Ca^2+ transients (in words)” value is on record as “no significant effect compared to ACSF”. The “effect on GABA dose-response in [^35S]GTPγS binding (in words)” value in test [5] (1 μM APP17) is “did not significantly differ from each other and exhibited similar EC50 and Emax values”. The “EMax of GABA in presence of peptide” value in test [5] (APP17 1 μM, n=8) stood at 1.39. Moreover, the “EC50 of GABA in presence of peptide” value in test [5] (APP17 1 μM, n=8, pH 7.7, 30 μM GDP, 0.2 nM [^35S]GTPγS) was 16.37 µM. In addition, the Basal in test [5] (GABA curve fit, APP17 1 μM, n=8) was determined as 0.98.
